# Laboratory results: article PMC4898691, “Structure of a Berberine Bridge Enzyme-Like Enzyme with an Active Site Specific to the Plant Family Brassicaceae” (PLoS ONE, 2016)
# Molecular target: T1, AtBBE-like 28 (Arabidopsis thaliana, UniProt Q9FI21)
# T1 construct: gene At5g44440; two chains in asymmetric unit
# T1 sequence (Q9FI21 28-533): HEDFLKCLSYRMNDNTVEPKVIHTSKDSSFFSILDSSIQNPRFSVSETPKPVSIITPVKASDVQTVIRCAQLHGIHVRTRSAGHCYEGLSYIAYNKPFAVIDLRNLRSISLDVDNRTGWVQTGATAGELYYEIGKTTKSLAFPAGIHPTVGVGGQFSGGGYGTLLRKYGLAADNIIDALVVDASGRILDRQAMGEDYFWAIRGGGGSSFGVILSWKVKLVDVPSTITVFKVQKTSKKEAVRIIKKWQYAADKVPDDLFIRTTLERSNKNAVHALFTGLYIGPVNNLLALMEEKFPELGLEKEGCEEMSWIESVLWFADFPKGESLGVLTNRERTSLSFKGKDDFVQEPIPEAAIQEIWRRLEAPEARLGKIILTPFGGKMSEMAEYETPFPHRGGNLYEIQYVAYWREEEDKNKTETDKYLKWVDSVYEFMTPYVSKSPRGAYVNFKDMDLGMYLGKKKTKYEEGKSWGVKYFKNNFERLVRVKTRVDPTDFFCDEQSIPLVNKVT
# Test: X-ray crystallography ([…] A)
# Assay type: binding
# Conditions: covalent; mono-covalent, His111 to flavin 8alpha-position; crystals at 277 K, HEPES pH 7.0, Jeffamine ED 2001
structure (smiles),measurement,value
Cc1cc2nc3c(=O)[nH]c(=O)nc-3n(C[C@H](O)[C@H](O)[C@H](O)COP(=O)(O)OP(=O)(O)OC[C@H]3O[C@@H](n4cnc5c(N)ncnc54)[C@H](O)[C@@H]3O)c2cc1C [FAD],X-ray crystallography (1.85 A),the covalent linkage established by the conserved GGHD motif was clearly seen in the crystal structure
